# According to PubChem BioAssay (NCI):
#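 Test compounds were applied to cells in 96-well plates for 48 hours at 5 doses. Definition used: TGI = concentration required for complete inhibition of growth.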
# Tests used:
# Experiment in all cases: DTP human tumour cell line panel, 48 h
# DU-145 prostate = tested on: DU-145 prostate
# NCI-H460 lung = tested on: NCI-H460 lung
# T-47D breast = tested on: T-47D breast
# SF-295 CNS = tested on: SF-295 CNS
# A498 renal = tested on: A498 renal
# PC-3 prostate = tested on: PC-3 prostate
# HOP-92 NSCLC = tested on: HOP-92 NSCLC
# A549 NSCLC = tested on: A549 NSCLC
# HCT-15 colon = tested on: HCT-15 colon
# OVCAR-3 ovarian = tested on: OVCAR-3 ovarian
# 786-0 renal = tested on: 786-0 renal
# LOX IMVI melanoma = tested on: LOX IMVI melanoma
# HCC-2998 colon = tested on: HCC-2998 colon
# SN12C renal = tested on: SN12C renal
# KM12 colon = tested on: KM12 colon
# NCI/ADR-RES ovarian = tested on: NCI/ADR-RES ovarian
# K-562 leukemia = tested on: K-562 leukemia
# COLO 205 colon = tested on: COLO 205 colon
# TK-10 renal = tested on: TK-10 renal
# SF-539 CNS = tested on: SF-539 CNS
# HCT-116 colon = tested on: HCT-116 colon
# IGROV1 ovarian = tested on: IGROV1 ovarian
# NCI-H226 lung = tested on: NCI-H226 lung
# SNB-75 CNS = tested on: SNB-75 CNS
# UACC-257 melanoma = tested on: UACC-257 melanoma
# MOLT-4 leukemia = tested on: MOLT-4 leukemia
# M14 melanoma = tested on: M14 melanoma
# OVCAR-8 ovarian = tested on: OVCAR-8 ovarian
# CAKI-1 renal = tested on: CAKI-1 renal
# HS 578T breast = tested on: HS 578T breast
# MALME-3M melanoma = tested on: MALME-3M melanoma
# MCF7 breast = tested on: MCF7 breast
# UACC-62 melanoma = tested on: UACC-62 melanoma
# NCI-H23 lung = tested on: NCI-H23 lung
# SK-MEL-28 melanoma = tested on: SK-MEL-28 melanoma
# HOP-62 NSCLC = tested on: HOP-62 NSCLC
# MDA-N = tested on: MDA-N
# BT-549 breast = tested on: BT-549 breast
# SW-620 colon = tested on: SW-620 colon
# OVCAR-5 ovarian = tested on: OVCAR-5 ovarian
# SK-MEL-2 melanoma = tested on: SK-MEL-2 melanoma
# SK-OV-3 ovarian = tested on: SK-OV-3 ovarian
# EKVX NSCLC = tested on: EKVX NSCLC
# UO-31 renal = tested on: UO-31 renal
# U251 CNS = tested on: U251 CNS
# HT29 colon = tested on: HT29 colon
# MDA-MB-435 = tested on: MDA-MB-435
# CCRF-CEM leukemia = tested on: CCRF-CEM leukemia
# MDA-MB-231 breast = tested on: MDA-MB-231 breast
# SNB-19 CNS = tested on: SNB-19 CNS
# RPMI-8226 leukemia = tested on: RPMI-8226 leukemia
# HL-60(TB) leukemia = tested on: HL-60(TB) leukemia
# ACHN renal = tested on: ACHN renal
# SK-MEL-5 melanoma = tested on: SK-MEL-5 melanoma
# NCI-H522 lung = tested on: NCI-H522 lung
# SF-268 CNS = tested on: SF-268 CNS
# OVCAR-4 ovarian = tested on: OVCAR-4 ovarian
structure (smiles),measurement,setting,value
CNC(=O)CCCNC(=O)CCCC(=O)N(C)C,TGI,DU-145 prostate,> 100 µM
same,TGI,NCI-H460 lung,> 100 µM
same,TGI,T-47D breast,> 100 µM
same,TGI,SF-295 CNS,> 100 µM
same,TGI,A498 renal,> 100 µM
same,TGI,PC-3 prostate,> 100 µM
same,TGI,HOP-92 NSCLC,> 100 µM
same,TGI,A549 NSCLC,> 100 µM
same,TGI,HCT-15 colon,> 100 µM
same,TGI,OVCAR-3 ovarian,> 100 µM
same,TGI,786-0 renal,> 100 µM
same,TGI,LOX IMVI melanoma,> 100 µM
same,TGI,HCC-2998 colon,> 100 µM
same,TGI,SN12C renal,> 100 µM
same,TGI,KM12 colon,> 100 µM
same,TGI,NCI/ADR-RES ovarian,> 100 µM
same,TGI,K-562 leukemia,> 100 µM
same,TGI,COLO 205 colon,> 100 µM
same,TGI,TK-10 renal,> 100 µM
same,TGI,SF-539 CNS,> 100 µM
same,TGI,HCT-116 colon,> 100 µM
same,TGI,IGROV1 ovarian,> 100 µM
same,TGI,NCI-H226 lung,> 100 µM
same,TGI,SNB-75 CNS,> 100 µM
same,TGI,UACC-257 melanoma,> 100 µM
same,TGI,MOLT-4 leukemia,> 100 µM
same,TGI,M14 melanoma,> 100 µM
same,TGI,OVCAR-8 ovarian,> 100 µM
same,TGI,CAKI-1 renal,> 100 µM
same,TGI,HS 578T breast,> 100 µM
same,TGI,MALME-3M melanoma,> 100 µM
same,TGI,MCF7 breast,> 100 µM
same,TGI,UACC-62 melanoma,> 100 µM
same,TGI,NCI-H23 lung,> 100 µM
same,TGI,SK-MEL-28 melanoma,> 100 µM
same,TGI,HOP-62 NSCLC,> 100 µM
same,TGI,MDA-N,> 100 µM
same,TGI,BT-549 breast,> 100 µM
same,TGI,SW-620 colon,> 100 µM
same,TGI,OVCAR-5 ovarian,> 100 µM
same,TGI,SK-MEL-2 melanoma,> 100 µM
same,TGI,SK-OV-3 ovarian,> 100 µM
same,TGI,EKVX NSCLC,> 100 µM
same,TGI,UO-31 renal,> 100 µM
same,TGI,U251 CNS,> 100 µM
same,TGI,HT29 colon,> 100 µM
same,TGI,MDA-MB-435,> 100 µM
same,TGI,CCRF-CEM leukemia,> 100 µM
same,TGI,MDA-MB-231 breast,> 100 µM
same,TGI,SNB-19 CNS,> 100 µM
same,TGI,RPMI-8226 leukemia,> 100 µM
same,TGI,HL-60(TB) leukemia,> 100 µM
same,TGI,ACHN renal,> 100 µM
same,TGI,SK-MEL-5 melanoma,> 100 µM
same,TGI,NCI-H522 lung,> 100 µM
same,TGI,SF-268 CNS,> 100 µM
COC1CC(OC2CCC3(C)C(=CCC4C3C(OC(C)=O)C(OC(=O)CC(C)C)C3(C)C(C(C)=O)CCC43O)C2)OC(C)C1OC1CC(OC)C(OC2CC(OC)C(OC3OC(C)C(OC4OC(CO)C(O)C(O)C4O)C(OC)C3O)C(C)O2)C(C)O1 (configuration not stated),TGI,DU-145 prostate,> 75 µM
same,TGI,NCI-H460 lung,> 7.5 µM
same,TGI,T-47D breast,> 75 µM
same,TGI,SF-295 CNS,> 75 µM
same,TGI,A498 renal,> 75 µM
same,TGI,PC-3 prostate,> 75 µM
same,TGI,HOP-92 NSCLC,> 75 µM
same,TGI,A549 NSCLC,> 75 µM
same,TGI,HCT-15 colon,> 75 µM
same,TGI,OVCAR-3 ovarian,> 75 µM
same,TGI,786-0 renal,> 75 µM
same,TGI,LOX IMVI melanoma,> 75 µM
same,TGI,HCC-2998 colon,> 75 µM
same,TGI,SN12C renal,> 75 µM
same,TGI,KM12 colon,> 75 µM
same,TGI,NCI/ADR-RES ovarian,> 75 µM
same,TGI,K-562 leukemia,> 75 µM
same,TGI,COLO 205 colon,> 75 µM
same,TGI,OVCAR-4 ovarian,> 75 µM
same,TGI,TK-10 renal,> 75 µM
same,TGI,SF-539 CNS,> 75 µM
same,TGI,HCT-116 colon,> 75 µM
same,TGI,IGROV1 ovarian,> 75 µM
same,TGI,NCI-H226 lung,> 75 µM
same,TGI,SNB-75 CNS,> 75 µM
same,TGI,UACC-257 melanoma,> 75 µM
same,TGI,MOLT-4 leukemia,> 75 µM
same,TGI,M14 melanoma,> 75 µM
same,TGI,OVCAR-8 ovarian,> 75 µM
same,TGI,CAKI-1 renal,> 75 µM
same,TGI,HS 578T breast,> 75 µM
same,TGI,MCF7 breast,> 75 µM
same,TGI,UACC-62 melanoma,> 75 µM
same,TGI,NCI-H23 lung,> 75 µM
same,TGI,SK-MEL-28 melanoma,> 75 µM
same,TGI,HOP-62 NSCLC,> 75 µM
same,TGI,MDA-N,> 75 µM
same,TGI,BT-549 breast,> 75 µM
same,TGI,SW-620 colon,> 75 µM
same,TGI,OVCAR-5 ovarian,> 75 µM
same,TGI,SK-MEL-2 melanoma,> 75 µM
same,TGI,SK-OV-3 ovarian,> 75 µM
same,TGI,EKVX NSCLC,> 75 µM
same,TGI,UO-31 renal,> 75 µM
same,TGI,U251 CNS,> 75 µM
same,TGI,HT29 colon,> 75 µM
same,TGI,MDA-MB-435,> 75 µM
same,TGI,CCRF-CEM leukemia,> 7.5 µM
same,TGI,MDA-MB-231 breast,> 75 µM
same,TGI,SNB-19 CNS,> 75 µM
same,TGI,RPMI-8226 leukemia,> 75 µM
same,TGI,HL-60(TB) leukemia,> 75 µM
same,TGI,ACHN renal,> 75 µM
same,TGI,SK-MEL-5 melanoma,> 75 µM
same,TGI,NCI-H522 lung,> 75 µM
same,TGI,SF-268 CNS,> 75 µM
